# From patent publication US10570118B2, “Isoquinolones as BTK inhibitors” (Boehringer Ingelheim International GmbH, priority 2016, dated 2020)
# Tests used:
# [1] = molecular target: human full length His-tagged BTK (Homo sapiens (Human), UniProt Q06187); assay: BTK Lanthscreen Eu Kinase Binding assay; details: TR-FRET tracer displacement, 2 nM BTK, 30 min pre-incubation
# Procedure: BTK Lanthscreen® Eu Kinase Binding assay:
# A Lanthscreen® Eu Kinase Binding assay (Life Technologies) was performed to quantitate the ability of test compounds to bind to BTK. The assay is based on the binding and displacement of Alexa Fluor647-labeled Kinase Tracer #236 to the ATP-binding site of human full length His-tagged BTK (Life Technologies cat # PV3587) with TR-FRET detection using a europium-labeled anti-His antibody. The assay was assembled in 384-well low volume NBS black plates (Corning) where 2 nM BTK and test compound in DMSO at varying concentrations were pre-incubated for 30 min at 28° C. in assay buffer consisting of 50 mM HEPES, pH 7.4, 10 mM MgCl2, 1 mM EGTA. 100 μM Na3VO4 and 0.01% Brij 35. Then, 2 nM of Eu-anti His antibody and 30 nM Kinase Tracer were added and incubated for […] at 28° C. Following incubation, TR-FRET signal was read on an Envision plate reader (Excitation: 340 nm; Emissions: 615 and 665 nm). The 665: 615 nm emission ratio was calculated and converted to POC compared to control and blank wells.
# BTK = BTK (Homo sapiens (Human), UniProt Q06187); assay: Inhibition of IL-6 production in B cells co-stimulated with ODN 2006 and anti-hIgD; type: cell-based; details: primary CD19+ B cells, anti-human IgD + ODN 2006 stimulation, 18-24 hours; read-out: B-cell IL-6 IC50
# Sequence of BTK (Q06187 whole entry): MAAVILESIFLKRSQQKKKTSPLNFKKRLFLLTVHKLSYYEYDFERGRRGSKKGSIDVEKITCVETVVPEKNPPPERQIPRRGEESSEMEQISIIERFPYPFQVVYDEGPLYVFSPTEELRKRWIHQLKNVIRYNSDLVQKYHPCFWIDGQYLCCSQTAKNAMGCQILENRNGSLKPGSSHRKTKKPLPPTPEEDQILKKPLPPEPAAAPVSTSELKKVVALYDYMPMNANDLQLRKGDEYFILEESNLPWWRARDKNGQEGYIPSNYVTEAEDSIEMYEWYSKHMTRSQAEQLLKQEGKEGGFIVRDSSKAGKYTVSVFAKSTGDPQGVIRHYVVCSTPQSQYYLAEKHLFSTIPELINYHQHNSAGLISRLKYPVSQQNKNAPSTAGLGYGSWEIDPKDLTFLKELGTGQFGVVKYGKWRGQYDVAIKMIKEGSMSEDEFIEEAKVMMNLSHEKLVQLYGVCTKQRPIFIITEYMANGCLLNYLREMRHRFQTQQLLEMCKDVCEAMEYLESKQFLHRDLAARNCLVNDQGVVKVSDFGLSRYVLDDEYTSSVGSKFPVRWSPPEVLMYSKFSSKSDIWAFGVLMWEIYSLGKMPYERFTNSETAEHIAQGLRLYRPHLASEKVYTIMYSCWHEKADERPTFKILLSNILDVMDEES
# Procedure: Inhibition of IL-6 Production in B Cells Co-Stimulated with ODN 2006 and Anti-hIgD
# Primary CD19+ B cells (AllCells # PB010F) are thawed and plated in RPMI containing 10% HI FBS in a 384-well tissue cultured plate at 20,000 cells/well. The cells are treated with test compound (0.5% DMSO final concentration) and incubated for 1 hour at 37° C., 5% CO2. Cells are then stimulated with 5 μg/mL Goat F(ab′)2 anti-human IgD (SouthernBiotech #2032) and 2 uM ODN 2006 (InvivoGen # till-2006) and incubated for 18-24 hours at 37° C., 5% CO2. IL-6 in the supernatant is measured using Meso Scale Discovery kit # K211AKB-6.
# (§1) The compounds described herein show a range of selectivity against EGFR as measured in cellular assays (BTK activity measured by IL-6 production in primary CD19^+ cells; EGFR activity measured by EGFR phosphorylation in A431 cells).
# EGFR = EGFR (Homo sapiens (Human), UniProt P00533); assay: Inhibition of EGFR autophosphorylation in A431 human epithelial cells stimulated with epithelial growth factor; type: cell-based; details: 16 hours compound, EGF 60 ng/mL 10 minutes, read-out: A431 p-EGFR IC50
# Sequence of EGFR (P00533 25-1210): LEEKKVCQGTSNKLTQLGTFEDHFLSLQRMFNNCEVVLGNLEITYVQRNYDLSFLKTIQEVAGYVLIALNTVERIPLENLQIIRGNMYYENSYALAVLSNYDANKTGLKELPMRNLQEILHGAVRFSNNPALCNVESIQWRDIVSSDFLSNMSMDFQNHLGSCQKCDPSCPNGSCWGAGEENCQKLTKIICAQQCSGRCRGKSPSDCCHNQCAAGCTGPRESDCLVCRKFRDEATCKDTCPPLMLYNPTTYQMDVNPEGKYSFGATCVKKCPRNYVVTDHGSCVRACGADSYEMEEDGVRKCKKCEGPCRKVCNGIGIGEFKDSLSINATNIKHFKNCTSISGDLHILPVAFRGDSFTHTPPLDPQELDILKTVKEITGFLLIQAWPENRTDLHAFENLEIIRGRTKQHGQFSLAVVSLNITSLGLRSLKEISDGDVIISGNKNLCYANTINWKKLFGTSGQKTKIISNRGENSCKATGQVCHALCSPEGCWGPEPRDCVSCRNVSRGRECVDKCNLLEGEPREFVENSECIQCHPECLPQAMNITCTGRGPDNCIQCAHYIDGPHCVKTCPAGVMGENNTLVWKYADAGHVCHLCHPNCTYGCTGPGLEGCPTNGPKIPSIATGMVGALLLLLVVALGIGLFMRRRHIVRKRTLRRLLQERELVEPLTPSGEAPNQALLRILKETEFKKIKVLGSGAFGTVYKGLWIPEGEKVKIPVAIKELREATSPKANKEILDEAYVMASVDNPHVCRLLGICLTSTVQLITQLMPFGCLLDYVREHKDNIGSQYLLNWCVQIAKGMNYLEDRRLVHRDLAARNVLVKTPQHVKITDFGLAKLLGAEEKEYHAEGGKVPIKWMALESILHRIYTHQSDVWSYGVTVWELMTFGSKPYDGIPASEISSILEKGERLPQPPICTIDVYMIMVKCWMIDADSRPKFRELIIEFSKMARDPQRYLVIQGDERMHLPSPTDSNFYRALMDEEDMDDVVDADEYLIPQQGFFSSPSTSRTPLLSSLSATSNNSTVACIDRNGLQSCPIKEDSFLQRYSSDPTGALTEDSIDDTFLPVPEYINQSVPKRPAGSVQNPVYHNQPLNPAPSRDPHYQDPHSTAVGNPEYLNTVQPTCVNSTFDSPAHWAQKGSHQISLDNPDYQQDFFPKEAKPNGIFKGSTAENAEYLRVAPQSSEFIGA
# Procedure: Inhibition of EGFR Autophosphorylation in A431 Human Epithelial Cells Stimulated with Epithelial Growth Factor
# A431 cells (ATCC # CRL-1555 FZ) are thawed and plated in DMEM containing 10% FBS in a 384-well tissue culture treated plate at 15,000 cells/well. After incubating for 24 hours at 37° C., 5% CO2, the cells are treated with test compound (1% DMSO final concentration) and incubated for 16 hours at 37° C., 5% CO2. EGF (Millipore, 01-107) is added at a final concentration of 60 ng/mL and incubated for 10 minutes. The medium is removed, the cells are lysed, and phospho EGFR is measured (Meso Scale Diagnostics, N31CB-1).
# as §1
# Sequence of human full length His-tagged BTK (Q06187 whole entry): as the sequence (Q06187 whole entry) above
SMILES,IC50 [1],IC50 (BTK),IC50 (EGFR)
C=CC(=O)N1CC(Cc2cc3cc(C4CC4)cc(OC)c3c(=O)n2-c2cccc(-c3cc(C(N)=O)n(C)c3)c2CO)C1 [Example 38],250 nM,–,–
CC#CC(=O)N1CC(c2cc3cc(C4CC4)ccc3c(=O)n2-c2cccc(-c3cc(N)c(=O)n(C)c3)c2CO)C1 [Example 28],310 nM,–,–
"C=CC(=O)N1CC(c2cc3cc(C4CC4)ccc3c(=O)n2-c2cccc(-c3cc(C(N)=O)n(C)c3)c2CO)C1 (single isomer, unassigned) [Example 42]",560 nM,–,–
C=CC(=O)N1CC(c2cc3cc(C4CC4)ccc3c(=O)n2-c2cccc(-c3cc(N)ncn3)c2CO)C1 [Example 21],0.48 nM,1.9 nM,> 10000 nM
C=CC(=O)N1CC(Cc2cc3cc(C4CC4)ccc3c(=O)n2-c2cccc(-c3ccc4cncn4c3)c2CO)C1 [Example 27],310 nM,–,–
C=CC(=O)N(C)Cc1cc2cc(C3CC3)ccc2c(=O)n1-c1cccc(-c2cccc(C(N)=O)c2)c1CO [Example 36],580 nM,–,–
C=CC(=O)N(C)Cc1cc2cc(C3CC3)ccc2c(=O)n1-c1cccc(-c2cc(N)c(=O)n(C)c2)c1CO [Example 24],140 nM,–,–
C=CC(=O)N1CCC(c2cc3cc(C4CC4)ccc3c(=O)n2-c2cccc(-c3cc(C(N)=O)n(C)c3)c2CO)C1 (stereo not shown) [Example 13],2.4 nM,12 nM,> 10000 nM
C=CC(=O)N1CC(c2cc3cc(C4CC4)ccc3c(=O)n2-c2cccc(-c3ccnc(NC)c3)c2CO)C1 [Example 15],4.2 nM,8.8 nM,> 10000 nM
N#CN1CC(c2cc3cc(C4CC4)ccc3c(=O)n2-c2cccc(-c3ccc4[nH]ncc4c3)c2CO)C1 [Example 3],1.9 nM,–,–
C=CC(=O)N1CC(c2cc3cc(C4CC4)ccc3c(=O)n2-c2cccc(-c3ccnc(N)c3)c2CO)C1 [Example 17],–,3.7 nM,> 10000 nM
N#CN1CC(c2cc3cc(C4CC4)ccc3c(=O)n2-c2cccc(-c3cccc(C(N)=O)c3)c2CO)C1 [Example 4],5 nM,–,–
C=CC(=O)N1CC(Cc2cc3cc(C4CC4)cc(F)c3c(=O)n2-c2cccc(-c3cc(C(N)=O)n(C)c3)c2CO)C1 [Example 41],0.71 nM,–,–
C=CC(=O)N1CC(c2cc3cc(C4CC4)cc(F)c3c(=O)n2-c2cccc(-c3cc(C(N)=O)n(C)c3)c2CO)C1 [Example 40],0.42 nM,4.6 nM,> 10000 nM
C=CC(=O)N1CC(c2cc3cc(C4CC4)ccc3c(=O)n2-c2cccc(-c3cc(N)c(=O)n(C)c3)c2CO)C1 [Example 11],1.9 nM,21 nM,> 10000 nM
Cn1cc(-c2cccc(-n3c(C4CN(C#N)C4)cc4cc(C5CC5)ccc4c3=O)c2CO)cc1C(N)=O [Example 1],0.7 nM,4.3 nM,4700 nM
C=CC(=O)N1CCC(c2cc3cc(C4CC4)ccc3c(=O)n2-c2cccc(-c3ccnc(N)c3F)c2CO)C1 (stereo not shown) [Example 37],620 nM,–,–
CC#CC(=O)N(C)Cc1cc2cc(C3CC3)ccc2c(=O)n1-c1cccc(-c2cc(C(N)=O)n(C)c2)c1CO [Example 34],530 nM,–,–
CC#CC(=O)N1CC(c2cc3cc(C4CC4)ccc3c(=O)n2-c2cccc(-c3cc(C(N)=O)n(C)c3)c2CO)C1 [Example 19],64 nM,–,–
CC#CC(=O)N1CC(c2cc3cc(C4CC4)ccc3c(=O)n2-c2cccc(-c3ccc4[nH]ncc4c3)c2CO)C1 [Example 30],450 nM,–,–
C=CC(=O)N1CC(Cc2cc3cc(C4CC4)ccc3c(=O)n2-c2cccc(-c3cc(C(N)=O)n(C)c3)c2CO)C1 [Example 2],4 nM,36 nM,> 10000 nM

SMILES,IC50 [1],IC50 (BTK),IC50 (EGFR)
CC#CC(=O)N1CC(c2cc3cc(C4CC4)ccc3c(=O)n2-c2cccc(-c3ccnc(NC)c3)c2CO)C1 [Example 35],530 nM,–,–
C=CC(=O)N1CCC(c2cc3cc(C4CC4)ccc3c(=O)n2-c2cccc(-c3ccncc3)c2CO)C1 (stereo not shown) [Example 22],37 nM,–,–
C=CC(=O)N1CCC1Cc1cc2cc(C3CC3)ccc2c(=O)n1-c1cccc(-c2cc(C(N)=O)n(C)c2)c1CO (stereo not shown) [Example 6],3.9 nM,16 nM,4500 nM
C/C=C/C(=O)N1CC(c2cc3cc(C4CC4)ccc3c(=O)n2-c2cccc(-c3ccnc(NC)c3)c2CO)C1 [Example 29],440 nM,–,–
CC#CC(=O)N1CC(Cc2cc3cc(C4CC4)ccc3c(=O)n2-c2cccc(-c3cc(C(N)=O)n(C)c3)c2CO)C1 [Example 8],11 nM,96 nM,> 10000 nM
C=CC(=O)N1CC(c2cc3cc(C4CC4)ccc3c(=O)n2-c2cccc(-c3cc(C(N)=O)n(C)c3)c2CO)C1 [Example 7],0.7 nM,5.6 nM,> 10000 nM
C=CC(=O)N1CCC(c2cc3cc(C4CC4)ccc3c(=O)n2-c2cccc(-c3ccn4cncc4c3)c2CO)C1 (stereo not shown) [Example 25],160 nM,–,–
"C=CC(=O)N1CC(c2cc3cc(C4CC4)ccc3c(=O)n2-c2cccc(-c3cc(C(N)=O)n(C)c3)c2CO)C1 (single isomer, unassigned) [Example 43]",0.56 nM,3.6 nM,> 10000 nM
C=CC(=O)N1CCC(c2cc3cc(C4CC4)ccc3c(=O)n2-c2cccc(-c3cc(N)c(=O)n(C)c3)c2CO)C1 (stereo not shown) [Example 16],20 nM,92 nM,> 10000 nM
C/C=C/C(=O)N1CC(c2cc3cc(C4CC4)ccc3c(=O)n2-c2cccc(-c3cc(C(N)=O)n(C)c3)c2CO)C1 [Example 26],230 nM,–,–
Cn1cc(-c2cccc(-n3c(C4CN(C#N)C4)cc4cc(C5CC5)ccc4c3=O)c2CO)cc(N)c1=O [Example 9],2.6 nM,–,–
C=CC(=O)N1CC(c2cc3cc(C4CC4)ccc3c(=O)n2-c2cccc(-c3cccc(C(N)=O)c3)c2CO)C1 [Example 5],5.2 nM,100 nM,> 10000 nM
C=CC(=O)N1CC(c2cc3cc(C4CC4)ccc3c(=O)n2-c2cccc(-c3ccnc(N)c3)c2Cl)C1 [Example 20],8.9 nM,37 nM,3200 nM
N#CN1CC(c2cc3cc(C4CC4)ccc3c(=O)n2-c2cccc(-c3cc(N)ncn3)c2CO)C1 [Example 12],3.3 nM,28 nM,4500 nM
Cn1cc(-c2cccc(-n3c(C4CCN(C#N)C4)cc4cc(C5CC5)ccc4c3=O)c2CO)cc(N)c1=O (stereo not shown) [Example 31],480 nM,–,–
CN(C#N)Cc1cc2cc(C3CC3)ccc2c(=O)n1-c1cccc(-c2cc(N)c(=O)n(C)c2)c1CO [Example 32],490 nM,–,–
C=CC(=O)N(C)Cc1cc2cc(C3CC3)ccc2c(=O)n1-c1cccc(-c2cc(C(N)=O)n(C)c2)c1CO [Example 18],59 nM,160 nM,> 10000 nM
C=CC(=O)N(C)Cc1cc2cc(C3CC3)ccc2c(=O)n1-c1cccc(-c2ccnc(N)c2)c1CO [Example 23],120 nM,–,–
C=CC(=O)N1CC(Cc2cc3cc(C4CC4)ccc3c(=O)n2-c2cccc(-c3ccnc(NC)c3)c2CO)C1 [Example 33],510 nM,–,–
C=CC(=O)N1CC(Cc2cc3cc(C4CC4)ccc3c(=O)n2-c2cccc(-c3cc(N)ncn3)c2CO)C1 [Example 14],19 nM,85 nM,> 10000 nM
